# From patent publication US20230097866A1, “BACTERIAL TOPOISOMERASE INHIBITORS DERIVED FROM ISOMANNIDE” (Ohio State Innovation Foundation, priority 2020, published 2023)
# Read-outs that look alike come from different tables or passages of the source. Marks after values point to notes of the source that are not given here.
# Tests used:
# [1] = tested on: S. aureus ATCC 29213; assay: MIC, CLSI broth microdilution, S. aureus ATCC 29213; type: cell-based; conditions: Staphylococcus aureus
# [2] = tested on: USA300 isolate of MRSA; assay: MIC, CLSI broth microdilution, USA300 MRSA; type: cell-based; conditions: Staphylococcus aureus, read-out: MIC USA300
# [3] = tested on: S. aureus strain isolated from a cystic fibrosis patient; assay: MIC, CLSI broth microdilution, CF isolate; type: cell-based; conditions: Staphylococcus aureus, read-out: MIC CF isolate
# [4] = molecular target: S. aureus DNA gyrase (Staphylococcus aureus, UniProt P20831); assay: Inhibition of DNA gyrase, biochemical assay (Inspiralis)
# [5] = molecular target: TopoIV from S. aureus (Staphylococcus aureus, UniProt P0C1U9); assay: biochemical; type: biochemical
# [6] = tested on: S. aureus ATCC 29213; assay: microbe, parasite or virus in culture; type: cell-based; conditions: Staphylococcus aureus, ATCC29213, read-out: S. aureus ATCC 29213 MIC (n = 2)
# Experimental: In order to determine the spontaneous mutation frequency of investigational agents (Table 4), the MIC was first determined using the agar dilution method as recommended by the Clinical and Laboratory Standards Institute.
# Triplicate independent inocula of S. aureus ATCC 29213 were evaluated.
# [7] = tested on: S. aureus ATCC 29213; type: cell-based, Staphylococcus aureus
# [8] = molecular target: hERG (Homo sapiens, UniProt Q12809); assay: hERG IC50, IonWorks Barracuda (Charles River)
# Description: The design of these isomannide-detived NBTIs focused on enhanced polarity and modulation of basicity through the two electronegative oxygen atoms in the linker.
# [9] = tested on: M. tuberculosis H37Rv; assay: MIC, microbroth dilution, M. tuberculosis H37Rv; type: cell-based; conditions: Mycobacterium tuberculosis
# [10] = tested on: M. abscessus 19977; assay: MIC, microbroth dilution, M. abscessus; type: cell-based, Mycobacterium abscessus; conditions: Mycobacteroides abscessus
# Experimental: (§1) MICs were determined against the NTM strains […] avium ATCC 700891 MAC101 and M. abscessus 19977 using the microbroth dilution method. MIC was determined using optical density and a calorimetric growth indicator. For optical density ([…]), the MIC is considered the first concentration to inhibit growth when compared to an untreated growth control. A calorimetric growth indicator (i.e. Alamar Blue) was also added to confirm MIC value by observing color change from […], indicating no active growth.
# [11] = tested on: M. avium 700891; assay: MIC, microbroth dilution, M. avium; type: cell-based; conditions: Mycobacterium avium
# Experimental: as §1
# [12] = tested on: M tuberculosis H37Rv in THP-1 macrophages; assay: Ex vivo efficacy against M. tuberculosis in THP-1 macrophages; type: cell-based, Mycobacterium tuberculosis
# [13] = tested on: Mycobacterium avium complex (ATCC 700891 MAC 101); assay: Ex vivo efficacy against M. avium; type: cell-based; conditions: concentration for >90% inhibition
# Experimental: (§2) Ex vivo efficacy was determined by inhibition of Mycobacterium avium complex (ATCC 700891 MAC 101), and Mycobacterium abscessus (ATCC 19977). Cytotoxicity tests were carried out against three human cell lines, THP-1 (ATCC TIB-202), HepG2 (ATCC HB-8065), and HeLa (ATCC CCL-2). IC50 values were calculated from dose response curves to determine cytotoxicity of test compounds.
# [14] = tested on: Mycobacterium abscessus (ATCC 19977); assay: Ex vivo efficacy against M. abscessus; type: cell-based; conditions: concentration for >90% inhibition
# Experimental: as §2
# [15] = tested on: S. aureus ATCC 29213; conditions: previously published data for 27 and ciprofloxacin; cited from earlier work
# [16] = tested on: MRSADRL-3161; conditions: previously published data for 27 and ciprofloxacin; cited from earlier work
# [17] = tested on: Streptococcus pyogenes LSI-1235; conditions: previously published data for 27 and ciprofloxacin; cited from earlier work
# [18] = tested on: Streptococcus pneumoniae LSI-4234; conditions: penicillin-susceptible strain; previously published data for 27 and ciprofloxacin; cited from earlier work
# [19] = tested on: Streptococcus pneumoniae LSI-4246; conditions: penicillin-resistant strain; previously published data for 27 and ciprofloxacin; cited from earlier work
# [20] = tested on: Enterococcus faecium DRL-4193; conditions: vancomycin-susceptible strain; previously published data for 27 and ciprofloxacin; cited from earlier work
# [21] = tested on: Enterococcus faecium LSI-3340; conditions: vancomycin-resistant strain; previously published data for 27 and ciprofloxacin; cited from earlier work
# [22] = tested on: Enterococcus faecalis ATCC 29212; conditions: previously published data for 27 and ciprofloxacin; cited from earlier work
# [23] = tested on: Escherichia coli ATCC 25922; conditions: previously published data for 27 and ciprofloxacin; cited from earlier work
# [24] = tested on: Pseudomonas aeruginosa LSI-2946; conditions: previously published data for 27 and ciprofloxacin; cited from earlier work
# [25] = tested on: Acinetobacter baumannii LSI-2957; conditions: previously published data for 27 and ciprofloxacin; cited from earlier work
# [26] = tested on: Klebsiella pneumoniae LSI-2999; conditions: previously published data for 27 and ciprofloxacin; cited from earlier work
# [27] = tested on: Enterobacter cloacae LSI-2943; conditions: previously published data for 27 and ciprofloxacin; cited from earlier work
# [28] = ATCC29213, read-out: MIC ATCC 29213
# [29] = ATCC29213, CLSI broth microdilution, triplicate, read-out: MIC ATCC 29213
# [30] = CLSI broth microdilution, ciprofloxacin-resistant MRSA
# [31] = S. aureus DNA gyrase, Inspiralis, Ltd., read-out: Gyrase IC50
# [32] = S. aureus TopoIV, read-out: TopoIV IC50
# TopoIV from S. aureus, sequence (P0C1S7 whole entry): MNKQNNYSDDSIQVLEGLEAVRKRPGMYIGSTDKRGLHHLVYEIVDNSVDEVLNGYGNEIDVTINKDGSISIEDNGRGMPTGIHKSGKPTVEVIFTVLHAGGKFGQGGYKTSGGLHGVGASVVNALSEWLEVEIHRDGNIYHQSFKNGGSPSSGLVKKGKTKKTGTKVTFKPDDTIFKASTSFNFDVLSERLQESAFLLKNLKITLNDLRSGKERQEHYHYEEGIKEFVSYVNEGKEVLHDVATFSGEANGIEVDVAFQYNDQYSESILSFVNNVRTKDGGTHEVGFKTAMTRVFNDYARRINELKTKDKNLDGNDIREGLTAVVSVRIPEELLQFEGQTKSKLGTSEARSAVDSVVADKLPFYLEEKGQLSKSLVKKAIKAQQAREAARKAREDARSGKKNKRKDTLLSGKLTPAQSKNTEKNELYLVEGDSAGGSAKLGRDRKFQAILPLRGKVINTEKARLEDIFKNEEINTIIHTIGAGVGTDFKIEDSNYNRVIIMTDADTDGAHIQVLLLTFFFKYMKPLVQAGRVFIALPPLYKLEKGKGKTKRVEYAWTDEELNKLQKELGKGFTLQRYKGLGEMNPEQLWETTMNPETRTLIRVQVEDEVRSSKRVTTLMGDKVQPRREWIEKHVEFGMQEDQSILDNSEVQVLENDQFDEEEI
# TopoIV from S. aureus, sequence (P0C1U9 whole entry): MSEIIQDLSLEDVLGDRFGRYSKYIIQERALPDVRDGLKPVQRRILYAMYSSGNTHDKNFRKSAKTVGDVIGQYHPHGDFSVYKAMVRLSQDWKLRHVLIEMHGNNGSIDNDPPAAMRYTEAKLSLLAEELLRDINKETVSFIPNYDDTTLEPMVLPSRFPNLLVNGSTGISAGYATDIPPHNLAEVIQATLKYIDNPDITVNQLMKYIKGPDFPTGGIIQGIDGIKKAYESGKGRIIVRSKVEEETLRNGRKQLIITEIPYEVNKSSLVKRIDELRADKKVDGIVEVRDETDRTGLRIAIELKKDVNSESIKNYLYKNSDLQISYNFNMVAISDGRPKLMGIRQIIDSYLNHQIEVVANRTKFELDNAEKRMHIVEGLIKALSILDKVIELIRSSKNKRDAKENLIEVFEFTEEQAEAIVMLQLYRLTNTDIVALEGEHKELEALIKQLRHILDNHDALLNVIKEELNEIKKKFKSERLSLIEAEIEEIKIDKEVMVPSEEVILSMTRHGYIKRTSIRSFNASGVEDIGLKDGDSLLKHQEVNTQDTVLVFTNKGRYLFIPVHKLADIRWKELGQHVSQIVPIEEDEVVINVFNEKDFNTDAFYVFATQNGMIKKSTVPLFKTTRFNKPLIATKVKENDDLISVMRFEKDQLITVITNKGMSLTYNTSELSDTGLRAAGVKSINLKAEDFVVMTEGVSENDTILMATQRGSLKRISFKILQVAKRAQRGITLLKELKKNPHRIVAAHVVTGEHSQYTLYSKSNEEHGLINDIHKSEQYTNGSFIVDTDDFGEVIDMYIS
# hERG, sequence (Q12809 whole entry): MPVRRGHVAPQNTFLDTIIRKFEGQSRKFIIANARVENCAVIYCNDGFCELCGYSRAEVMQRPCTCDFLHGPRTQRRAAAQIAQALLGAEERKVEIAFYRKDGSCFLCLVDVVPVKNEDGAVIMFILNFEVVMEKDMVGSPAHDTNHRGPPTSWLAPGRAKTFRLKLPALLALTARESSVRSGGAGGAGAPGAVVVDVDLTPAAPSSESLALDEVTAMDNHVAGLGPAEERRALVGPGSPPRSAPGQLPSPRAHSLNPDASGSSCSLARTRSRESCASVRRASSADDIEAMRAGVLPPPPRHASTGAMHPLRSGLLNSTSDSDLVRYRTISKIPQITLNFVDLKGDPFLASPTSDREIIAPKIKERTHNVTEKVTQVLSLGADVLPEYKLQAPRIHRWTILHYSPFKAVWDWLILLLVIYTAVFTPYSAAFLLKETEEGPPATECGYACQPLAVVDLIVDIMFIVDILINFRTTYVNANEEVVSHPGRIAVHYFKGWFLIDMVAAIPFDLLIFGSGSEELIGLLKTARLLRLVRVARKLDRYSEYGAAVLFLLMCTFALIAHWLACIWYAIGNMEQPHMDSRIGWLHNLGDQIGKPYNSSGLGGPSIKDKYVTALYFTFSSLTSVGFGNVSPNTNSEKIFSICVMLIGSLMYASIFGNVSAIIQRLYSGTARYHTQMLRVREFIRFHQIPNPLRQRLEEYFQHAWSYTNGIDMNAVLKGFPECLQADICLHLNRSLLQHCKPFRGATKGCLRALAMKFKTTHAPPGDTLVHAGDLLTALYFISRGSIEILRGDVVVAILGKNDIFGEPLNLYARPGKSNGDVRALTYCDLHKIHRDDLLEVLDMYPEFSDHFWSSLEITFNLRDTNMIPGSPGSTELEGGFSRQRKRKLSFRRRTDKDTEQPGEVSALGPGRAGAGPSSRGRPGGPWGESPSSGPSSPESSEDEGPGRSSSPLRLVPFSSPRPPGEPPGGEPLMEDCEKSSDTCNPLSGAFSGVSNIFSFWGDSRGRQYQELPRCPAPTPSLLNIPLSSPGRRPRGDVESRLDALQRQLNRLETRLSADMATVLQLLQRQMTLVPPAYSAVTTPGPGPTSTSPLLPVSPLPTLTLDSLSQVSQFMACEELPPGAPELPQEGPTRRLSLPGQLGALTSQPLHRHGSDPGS
# S. aureus DNA gyrase, sequence (P0A0K8 whole entry): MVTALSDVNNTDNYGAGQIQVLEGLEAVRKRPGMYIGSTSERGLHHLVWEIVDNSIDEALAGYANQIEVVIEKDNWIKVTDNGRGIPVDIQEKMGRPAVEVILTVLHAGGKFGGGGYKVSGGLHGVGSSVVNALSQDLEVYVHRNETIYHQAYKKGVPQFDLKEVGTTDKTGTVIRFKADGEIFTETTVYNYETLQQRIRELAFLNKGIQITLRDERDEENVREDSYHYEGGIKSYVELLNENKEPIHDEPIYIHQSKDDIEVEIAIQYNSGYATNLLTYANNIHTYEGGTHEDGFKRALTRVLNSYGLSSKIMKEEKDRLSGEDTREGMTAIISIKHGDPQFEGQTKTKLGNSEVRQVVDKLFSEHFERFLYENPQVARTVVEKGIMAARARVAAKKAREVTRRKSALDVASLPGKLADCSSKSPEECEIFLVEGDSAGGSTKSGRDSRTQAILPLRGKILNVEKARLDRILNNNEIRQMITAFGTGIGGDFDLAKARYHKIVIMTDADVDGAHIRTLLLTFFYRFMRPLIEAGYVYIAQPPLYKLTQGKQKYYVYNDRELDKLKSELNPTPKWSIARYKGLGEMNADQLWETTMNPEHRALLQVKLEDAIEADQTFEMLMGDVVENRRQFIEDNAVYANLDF
# S. aureus DNA gyrase, sequence (P20831 whole entry): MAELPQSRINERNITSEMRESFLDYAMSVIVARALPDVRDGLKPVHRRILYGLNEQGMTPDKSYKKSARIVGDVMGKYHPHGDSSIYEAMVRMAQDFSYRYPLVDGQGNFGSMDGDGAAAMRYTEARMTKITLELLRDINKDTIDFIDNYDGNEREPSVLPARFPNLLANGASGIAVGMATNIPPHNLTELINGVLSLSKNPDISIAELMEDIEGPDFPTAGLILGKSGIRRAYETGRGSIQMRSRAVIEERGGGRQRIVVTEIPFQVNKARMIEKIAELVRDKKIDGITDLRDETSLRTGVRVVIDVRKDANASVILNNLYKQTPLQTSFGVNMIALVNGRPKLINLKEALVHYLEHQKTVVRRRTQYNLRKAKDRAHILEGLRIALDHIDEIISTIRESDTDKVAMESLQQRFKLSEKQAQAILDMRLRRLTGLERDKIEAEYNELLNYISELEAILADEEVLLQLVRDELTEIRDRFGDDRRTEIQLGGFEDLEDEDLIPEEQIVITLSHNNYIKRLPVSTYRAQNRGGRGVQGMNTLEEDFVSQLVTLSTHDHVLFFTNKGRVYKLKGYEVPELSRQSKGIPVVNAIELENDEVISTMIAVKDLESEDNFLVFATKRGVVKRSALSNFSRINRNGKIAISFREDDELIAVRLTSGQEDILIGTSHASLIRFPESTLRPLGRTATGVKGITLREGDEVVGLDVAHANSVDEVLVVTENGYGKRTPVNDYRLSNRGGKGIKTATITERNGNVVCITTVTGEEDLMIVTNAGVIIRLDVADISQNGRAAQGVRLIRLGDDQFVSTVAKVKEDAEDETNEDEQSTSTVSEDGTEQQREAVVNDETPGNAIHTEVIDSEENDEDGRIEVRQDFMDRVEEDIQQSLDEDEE
smiles,measurement,setting,value
"COc1ccc2ncc(F)c(CC[C@@]3(O)CO[C@@H]4[C@@H](NCc5ccc6c(n5)NC(=O)CO6)CO[C@@H]43)c2n1 [Compound 7, 6-((((3S,3aR,6R,6aS)-6-(2-(3-fluoro-6-methoxy-1,5-tnaphthyriditn-4-yl)ethyl)-6-hydroxyhexahydrofuro[3,2-b]furan-3-yl)amino)methyl)-2H-pyrido[3,2-b][1,4]oxazin-3(4H)-one]",MIC,[1]; [28],2 µg/mL
same,MIC,[2],1 to 2 µg/mL
same,MIC,[3],2 µg/mL
same,IC50,[4],540 nM
same,TopoIV IC50,[5],No activity
"COc1ccc2nccc(CC[C@@]3(O)CO[C@@H]4[C@@H](NCc5ccc6c(c5)OCCO6)CO[C@@H]43)c2c1 [Compound 21, (3R,3aS,6S, 6aR)-6-(((2,3-dihydrobenzo[b][1,4]dioxin-6-yl)methyl)amino)-3-(2-(6-methoxyquinalin-4-yl)ethyl)hexahydrofuro[3,2-b]furan-3-ol]",MIC,[1]; [29],16 to 32 µg/mL
same,MIC,[2]; [30],16 µg/mL
same,MIC,[3]; CLSI broth microdilution,16 µg/mL
"COc1ccc2nccc(CC[C@@]3(O)CO[C@@H]4[C@@H](NCc5ccccc5)CO[C@@H]43)c2c1 [Compound 22, (3R,3aS,6S,6aR)-6-(benzylamino)-3-(2-(6-methoxyquinolin-4-yl)ethyl)hexahydrofuro[3,2-b]furan-3-ol]",MIC,[1]; [29],> 8 µg/mL
same,MIC,[2]; [30],> 8 µg/mL
same,MIC,[3]; CLSI broth microdilution,> 8 µg/mL
"COc1ccc2nccc(CC[C@@]3(O)CO[C@@H]4[C@@H](NCc5ccc(C)cc5)CO[C@@H]43)c2c1 [Compound 23, (3R,3aS,6S,6aR)-3-(2-(6-methoxyquinolin-4-yl)ethyl)-6-((4-methylbenzyl)amino)hexahydrofuro[3,2-h]furan-3-ol]",MIC,[1]; [29],> 8 µg/mL
same,MIC,[2]; [30],> 8 µg/mL
same,MIC,[3]; CLSI broth microdilution,> 8 µg/mL
"COc1ccc2ncc(F)c(CC[C@@]3(O)CO[C@@H]4[C@@H](NCc5ccc6c(c5)OCCO6)CO[C@@H]43)c2n1 [Compound 24, (3R,3aS,6S, 6aR)-6-(((2,3-dihydrobenzo[b][1,4]dioxin-6-yl)methyl)amino)-3-(2-(3-fluoro-6-methoxy-1,5-naphthyridin-4-yl)ethyl)hexahydrofuro[3,2-b]furan-3-ol]",MIC,[1]; [28],0.5 to 1 µg/mL
same,MIC,[2],1 µg/mL
same,MIC,[3],1 µg/mL
same,IC50,[4],200 nM
same,IC50,[5],2600 nM
same,TopoIV/gyrase IC50 ratio,[5],13
same,improvement of TopoIV/gyrase IC50 ratio as compared to dioxane 27,[5],~2 fold
same,MIC,[6],0.5 µg/mL
same,Spontaneous mutation frequency (8X MIC),[7],"1.35 × 10^−9 (mean, n = 2)"
same,Spontaneous mutation frequency (16X MIC),[7],"4.49 × 10^−10 (mean, n = 2)"
same,hERG IC50 higher than 31 and 32,[8]; 24 versus cyclohexane-linked 31 and 32,> 8 fold
"COc1ccc2ncc(F)c(CC[C@@]3(O)CO[C@@H]4[C@@H](NCc5ccc(C)cc5)CO[C@@H]43)c2n1 [Compound 25, (3R,3aS,6S,6aR)-3-(2-(3-fluora-6-methoxy-1,5-naphthyridin-4-yl)ethyl)-6-((4-methyllbenzyl)amino)hexahydrofuro[3,2-b]furan-3-ol]",MIC,[1]; [29],1 to 2 µg/mL
same,MIC,[2]; [30],2 µg/mL
same,MIC,[3]; CLSI broth microdilution,2 µg/mL
same,IC50,[4]; [31],180 nM
same,IC50,[5]; [32],7500 nM
same,TopoIV/gyrase IC50 ratio,[5]; S. aureus enzymes,42
same,IC50,"[8]; read-out: hERG IC50, IonWorks Barracuda",4200 nM
same,MIC,[9],8 µg/mL
same,MIC,[10],8 µg/mL
same,MIC,[11],16 µg/mL
same,M. tuberculosis ex vivo efficacy (% inhibition at MIC),[12],80%
same,Ex vivo efficacy M. avium (>90% inhibition),[13],>128 µg/mL
same,Ex vivo efficacy M. abscessus (>90% inhibition),[14],>128 µg/mL
"COc1ccc2ncc(F)c(CC[C@@]3(O)CO[C@@H]4[C@@H](NCc5ccc(Cl)c(Cl)c5)CO[C@@H]43)c2n1 [Compound 26, (3R,3aS,6S,6aR)-6-((3,4-dichlorobenzyl)amino)-3-(2-(3-fluoro-6-methoxy-1,5-napkthyridin-4-yl)ethyl)hexahydrofuro[3,2-b]-furan-3-ol]",MIC,[1]; [29],0.25 to 0.5 µg/mL
same,MIC,[2]; [30],0.5 µg/mL
same,MIC,[3]; CLSI broth microdilution,0.5 µg/mL
same,IC50,[4]; [31],200 nM
same,IC50,[5]; [32],2900 nM
same,MIC,[9],2 µg/mL
same,MIC,[10],8 µg/mL
same,MIC,[11],1 µg/mL
same,M. tuberculosis ex vivo efficacy (% inhibition at MIC),[12],90%
same,Ex vivo efficacy M. avium (>90% inhibition),[13],>128 µg/mL
same,Ex vivo efficacy M. abscessus (>90% inhibition),[14],32 µg/mL
COc1ccc2ncc(F)c(CCC3OCC(NCc4ccc5c(c4)OCCO5)CO3)c2n1 (stereo not shown) [Compound 27],MIC,[1]; [29],≤ 0.25 µg/mL
same,MIC,[2]; [30],0.125 to 0.25 µg/mL
same,MIC,[3]; CLSI broth microdilution,0.25 µg/mL
same,IC50,[4]; [31],30 nM
same,IC50,[5]; [32],1000 nM
same,TopoIV/gyrase IC50 ratio,[5]; S. aureus enzymes,33
same,IC50,[8],8000 nM
same,MIC S. aureus ATCC 29213 (n = 3),[15],≤0.06^b μg/mL
same,MIC MRSADRL-3161,[16],≤0.06 µg/mL
same,MIC Streptococcus pyogenes LSI-1235,[17],≤0.06 µg/mL
same,MIC Streptococcus pneumoniae LSI-4234,[18],0.25 µg/mL
same,MIC Streptococcus pneumoniae LSI-4246,[19],≤0.06 µg/mL
same,MIC Enterococcus faecium DRL-4193,[20],0.12^f μg/mL
same,MIC Enterococcus faecium LSI-3340,[21],0.12 µg/mL
same,MIC Enterococcus faecalis ATCC 29212,[22],0.5 µg/mL
same,MIC Escherichia coli ATCC 25922 (n = 2),[23],16 µg/mL
same,MIC Pseudomonas aeruginosa LSI-2946,[24],4 µg/mL
same,MIC Acinetobacter baumannii LSI-2957,[25],2 µg/mL
same,MIC Klebsiella pneumoniae LSI-2999,[26],>64 µg/mL
same,MIC Enterobacter cloacae LSI-2943,[27],32 µg/mL
O=C(O)c1cn(C2CC2)c2cc(N3CCNCC3)c(F)cc2c1=O [ciprofloxacin],MIC Streptococcus pyogenes LSI-1235,[17],0.25 µg/mL
same,MIC Streptococcus pneumoniae LSI-4246,[19],0.5 µg/mL
same,MIC Enterococcus faecium DRL-4193,[20],0.25 µg/mL
same,MIC Enterococcus faecalis ATCC 29212,[22],0.5 µg/mL
same,MIC Escherichia coli ATCC 25922 (n = 2),[23],≤0.06 µg/mL
same,MIC Pseudomonas aeruginosa LSI-2946,[24],0.5 µg/mL
same,MIC Acinetobacter baumannii LSI-2957,[25],0.25 µg/mL
same,MIC Klebsiella pneumoniae LSI-2999,[26],0.25 µg/mL
"CN[C@H](CC(C)C)C(=O)N[C@H]1C(=O)N[C@@H](CC(N)=O)C(=O)N[C@H]2C(=O)N[C@H]3C(=O)N[C@H](C(=O)N[C@H](C(=O)O)c4cc(O)cc(O)c4-c4cc3ccc4O)[C@H](O)c3ccc(c(Cl)c3)Oc3cc2cc(c3O[C@@H]2O[C@H](CO)[C@@H](O)[C@H](O)[C@H]2O[C@H]2C[C@](C)(N)[C@H](O)[C@H](C)O2)Oc2ccc(cc2Cl)[C@H]1O [vancomycin, reference compound]",MIC,[2],1 to 2 µg/mL
same,MIC,[3],1 to 2 µg/mL
